Test results from US20120309087A1, “CANCER THERAPY” (University Court of The University of Dundee, priority 2006, published 2012).
Where “and” joins values, the source holds several entries; their conditions need not be identical. Equal entries are not always repeated.

Experiments:
[1] = system: ARE-driven luciferase activity in AREc32 cells; experiment: Induction of ARE-driven luciferase activity in stable AREc32 reporter cells; assay type: cell-based, human; conditions: for CD, concentration of inducting agent that doubled luciferase reporter activity: AREc32, DMSO set at 1
[2] = system: AKR1C1 and NQO1 mRNA in Caco-2 cells; experiment: AKR1C1 and NQO1 mRNA in Caco-2 cells (TaqMan); assay type: cell-based, human; conditions: sulforaphane 5 μM, 24 hrs
Description: Method: AREc32 cells were seeded out in 96 well plates and treated with DMSO (control), tBHQ (50 μM), tBHQ+BTB09463 (5 μM) or tBHQ+Retinoic acid (1 μM). After 24 hours incubation, cells were washed and lysed before measuring luciferase activity. BTB09463 is 1-{4-[(3,4-dichlorobenzyl)oxy]phenyl}ethan-1-one. […] Method: AREc32 cells were seeded out in 96 well plates and dosed with BTB09463 (2.5, 5 or 10 μM) for 0, 24 or 48 hrs before treatment with tBHQ (50 μM). 24 hours after the addition of tBHQ, cells were washed and lysed before measuring luciferase activity. […] Method: ARE c32 cells were seeded out in 96 well plates and treated with DMSO (control), tBHQ (50 μM), tBHQ+retinoid (0.25, 0.5 and 1 μM). After 24 hours incubation, cells were washed and lysed before measuring luciferase activity. […] See FIG. 16 Method: A. Caco-2 cells were treated with the known ARE-gene inducer sulforaphane (5 μM), either alone or concomitantly with BTB09463 (5 μM) or Retinoic acid (1 μM). After 24 hrs, cell lysates were prepared and Western blotting performed to measure the levels of AKR1C protein. B. MCF7 cells were treated with sulforaphane (5 μM), either alone or concomitantly with BTB09463 (5 μM). After 24 hrs, cell lysates were prepared and Western blots performed to detect the levels of AKR1C and NQO1; GAPDH was used as a loading control in MCF7 cells. […] Method: Caco-2 cells were treated with DMSO (control), BTB09463 (5 μM), sulforaphane (5 μM) or a combination of sulforaphane plus BTB09463. After 24 hrs treatment, cells were harvested and RNA isolated. cDNA for each sample was generated by reverse transcription and subsequently used in real time PCR analysis of gene transcription (TaqMan analysis) for the ARE-driven genes AKR1C1 and NQO1. Data was normalised to the internal control 18S RNA and the relative levels of AKR1C1 and NQO1 calculated using the comparative CT method. […] Method: MCF7 cells were treated with the known ARE-gene inducer sulforaphane (5 μM), either alone or with various retinoids (0.5 μM). After 24 hrs, cell lysates were prepared and Western blots were performed to detect the levels of AKR1C protein present. […] See FIG. 19 Method: ARE reporter cell line AREc23 was seeded into 96 well plates and treated with a previously determined non-toxic concentration of cytotoxic drug. After 24 hours incubation, cells were washed and lysed before measuring luciferase activity. […] See FIG. 20a Method: ARE reporter cell line AREc23 was seeded into 96 well plates and treated with DMSO (control), Carmustine (100 μM), Carmustine+BTB09463 (5 μM) or Carmustine+Retinoic acid (5 μM) After 24 hours incubation, cells were washed and lysed before measuring luciferase activity. […] After 24 hours incubation, cells were washed and lysed before measuring luciferase activity. […]

[3] = system: AKR1C1, NQO1, GCLC, GCLM mRNA in A549 cells; experiment: Constitutive mRNA of ARE-driven genes in A549 cells (Taqman); assay type: cell-based, human; conditions: BTB09463 1, 5, 20, 40 μmol/l or retinoids 0.050, 0.20, 0.50, 2.0 μmol/l, 24 hrs
[4] = system: AKR1C and NQO1 protein in MCF7 cells; experiment: AKR1C and NQO1 protein in MCF7 cells (Western blots); assay type: cell-based, human; conditions: sulforaphane 5 μM + retinoid 0.5 μM, 24 hrs
Description: Method: AREc32 cells were seeded out in 96 well plates and treated with DMSO (control), tBHQ (50 μM), tBHQ+BTB09463 (5 μM) or tBHQ+Retinoic acid (1 μM). After 24 hours incubation, cells were washed and lysed before measuring luciferase activity. BTB09463 is 1-{4-[(3,4-dichlorobenzyl)oxy]phenyl}ethan-1-one. […] Method: AREc32 cells were seeded out in 96 well plates and dosed with BTB09463 (2.5, 5 or 10 μM) for 0, 24 or 48 hrs before treatment with tBHQ (50 μM). 24 hours after the addition of tBHQ, cells were washed and lysed before measuring luciferase activity. […] Method: ARE c32 cells were seeded out in 96 well plates and treated with DMSO (control), tBHQ (50 μM), tBHQ+retinoid (0.25, 0.5 and 1 μM). After 24 hours incubation, cells were washed and lysed before measuring luciferase activity. […] See FIG. 16 Method: A. Caco-2 cells were treated with the known ARE-gene inducer sulforaphane (5 μM), either alone or concomitantly with BTB09463 (5 μM) or Retinoic acid (1 μM). After 24 hrs, cell lysates were prepared and Western blotting performed to measure the levels of AKR1C protein. B. MCF7 cells were treated with sulforaphane (5 μM), either alone or concomitantly with BTB09463 (5 μM). After 24 hrs, cell lysates were prepared and Western blots performed to detect the levels of AKR1C and NQO1; GAPDH was used as a loading control in MCF7 cells. […] Method: Caco-2 cells were treated with DMSO (control), BTB09463 (5 μM), sulforaphane (5 μM) or a combination of sulforaphane plus BTB09463. After 24 hrs treatment, cells were harvested and RNA isolated. cDNA for each sample was generated by reverse transcription and subsequently used in real time PCR analysis of gene transcription (TaqMan analysis) for the ARE-driven genes AKR1C1 and NQO1. Data was normalised to the internal control 18S RNA and the relative levels of AKR1C1 and NQO1 calculated using the comparative CT method. […] Method: MCF7 cells were treated with the known ARE-gene inducer sulforaphane (5 μM), either alone or with various retinoids (0.5 μM). After 24 hrs, cell lysates were prepared and Western blots were performed to detect the levels of AKR1C protein present. […] See FIG. 19 Method: ARE reporter cell line AREc23 was seeded into 96 well plates and treated with a previously determined non-toxic concentration of cytotoxic drug. After 24 hours incubation, cells were washed and lysed before measuring luciferase activity. […] See FIG. 20a Method: ARE reporter cell line AREc23 was seeded into 96 well plates and treated with DMSO (control), Carmustine (100 μM), Carmustine+BTB09463 (5 μM) or Carmustine+Retinoic acid (5 μM) After 24 hours incubation, cells were washed and lysed before measuring luciferase activity. […] After 24 hours incubation, cells were washed and lysed before measuring luciferase activity. B. Modified repeat of experiment A, with cells being pretreated with L-buthionine-(SR)-sulfoximine (BSO), an inhibitor of enzymes in the glutathione synthesis pathway. After 24 hours incubation, cells were washed and lysed before measuring luciferase activity. […] Method: Caco-2 cells were treated for 24 hrs with DMSO (control), Carmustine (100 μM), Carmustine+BTB09463 (5 μM). After 24 hrs, cell lysates were prepared and Western blots to detect the levels of AKR1C. […] Method: MCF7 cells were treated for 24 hrs with DMSO (control; Lane 1), Sulforaphane (5 μM) (Lane 2), Carmustine (100 μM) (Lane 3), Carmustine+BTB09463 (5 μM) (Lane 5). (Lane 4 represents experimental conditions irrelevant to the application). After 24 hrs, cell lysates were prepared and Western blots to detect the levels of Nrf2, NQO1 and AKR1C proteins.

[5] = system: ARE reporter system in HepG2 cells; experiment: Transient pGL-GSTA2.41bp-ARE luciferase reporter in HepG2 cells; conditions: 50 μM tBHQ
Description: (§1) The Dual-luciferase Reporter Assay System (Promega) was used to examine reporter gene activity in transiently transfected cells. Briefly, cells were seeded at a density of 2×10^5 cells/well in 24-well plates and grown in the appropriate medium. After overnight incubation, the cells were transiently transfected with various ARE-luciferase reporter plasmids. The plasmid pRL-TK, encoding Renilla luciferase was used to control for transfection efficiency. Transfections were performed using Lipofectamine 2000 Reagent (Lifer Technologies Inc. Ltd., Coventry, UK) according to the manufacture's instructions. Following transfection, the culture medium was replaced 24 h later with fresh growth medium containing 50 μM tBHQ (in a solution giving a final concentration of 0.1% v/v dimethyl sulfoxide (DMSO)), which was prepared immediately before each experiment. For control experiments, vehicle alone (0.1% v/v DMSO) was added to the growth medium. Cells were left for 24 h to respond to xenobiotics before being harvested and the firefly and Renilla luciferase activities in cell lysates were measured using a luminometer (Turner Designs Model TD-20/20, Promega) following addition of Luciferase Assay Reagent II (Promega). […] The relative luciferase activity was calculated by normalizing firefly luciferase activity to that of Renilla luciferase. […]

[6] = system: ARE-green fluorescent protein (GFP) reporter HepG2 cell line; conditions: 90 μM tBHQ; HepG2/GFP-B; cited from earlier work
[7] = system: ARE reporter system in CHO cells; experiment: Transient pGL-GSTA2.41bp-ARE luciferase reporter in CHO cells; conditions: 50 μM tBHQ
Description: as §1

[8] = system: ARE reporter system in MCF7 cells; experiment: Transient pGL-GSTA2.41bp-ARE luciferase reporter in MCF7 cells
Description: The Dual-luciferase Reporter Assay System (Promega) was used to examine reporter gene activity in transiently transfected cells. Briefly, cells were seeded at a density of 2×10^5 cells/well in 24-well plates and grown in the appropriate medium. After overnight incubation, the cells were transiently transfected with various ARE-luciferase reporter plasmids. The plasmid pRL-TK, encoding Renilla luciferase was used to control for transfection efficiency. Transfections were performed using Lipofectamine 2000 Reagent (Lifer Technologies Inc. Ltd., Coventry, UK) according to the manufacture's instructions. Following transfection, the culture medium was replaced 24 h later with fresh growth medium containing 50 μM tBHQ (in a solution giving a final concentration of 0.1% v/v dimethyl sulfoxide (DMSO)), which was prepared immediately before each experiment. For control experiments, vehicle alone (0.1% v/v DMSO) was added to the growth medium. Cells were left for 24 h to respond to xenobiotics before being harvested and the firefly and Renilla luciferase activities in cell lysates were measured using a luminometer (Turner Designs Model TD-20/20, Promega) following addition of Luciferase Assay Reagent II (Promega). After quenching the reaction, the Renilla luciferase reaction was initiated by adding Stop & Glo Reagent (Promega). The relative luciferase activity was calculated by normalizing firefly luciferase activity to that of Renilla luciferase.
In order to choose an appropriate cell system for the generation of a stable reporter cell line, pGL-GSTA2.41 bp-ARE was transfected into HepG2, MCF7, CHO, Hepa1 cells.

[9] = system: AKR1C mRNA in AREc32 cells; experiment: AKR1C mRNA in AREc32 cells (TaqMan); conditions: 10 μM tBHQ, 24 h
[10] = system: ARE reporter system in Hepa1 cells; experiment: Transient pGL-GSTA2.41bp-ARE luciferase reporter in Hepa1 cells; conditions: 50 μM tBHQ
Description: as §1

[11] = system: MCF7 cells; experiment: cells; assay type: cell-based; conditions: single agent
[12] = system: A549 cells; experiment: Cytotoxicity in A549 cells (ATP levels, 72 h); assay type: cell-based, human; conditions: single agent
[13] = HepG2 cells treated with DMSO set at 1

With C[S+]([O-])CCCCN=C=S (stereo not shown) [SUL, sulforaphane] the “CD, concentration of inducting agent that doubled luciferase reporter activity” value ([1]; 24 h) was 2 µM, the “induction of AKR1C1 mRNA” value [2] was 12 fold and the “induction of NQO1 mRNA” value [2] was “less markedly induced”.
In the case of CC1=C(/C=C/C(C)=C/C=C/C(C)=C/C=O)C(C)(C)CCC1 [all-trans retinal], the “constitutive expression of AKR1C1 mRNA” value [3] is reported as “inhibited the constitutive expression of AKR1C1 in a concentration-dependent manner” and the “sulforaphane-induced AKR1C protein” value [4] is reported as “reduced the expression of sulforaphane-induced AKR1C”.
In the case of CC(C)(C)c1cc(O)ccc1O [tBHQ, tert-butylhydroquinone], the “Ratio (tBHQ/DMSO)” value [5] is listed as 2.8 ± 0.9, the “Relative luciferase activity (tBHQ treated)” value (“Relative luciferase activity” below) [5, 13] is listed as 2.8 ± 0.9 and the “maximal increase of GFP reporter” value [6] is listed as 3 fold. For the same molecule, the “increase of luciferase activity” value ([1]; 1 μM tBHQ, 24 h) was 2 fold, the “increase of luciferase activity” value ([1]; 5 μM tBHQ, 24 h) was 5 fold and the “lag phase before increase of luciferase activity” value ([1]; 10 μM tBHQ alone) was “approximately 3 hour”. For the same molecule, the “increase of luciferase activity” value ([1]; 10 μM tBHQ, 8 h) was 4 fold, the “increase of luciferase activity” value ([1]; 10 μM tBHQ, 18 h) was 10 fold and the “induction of luciferase activity” value ([1]; 10 μM tBHQ, 50 ng pRS-hNrf2 DNA per well (Nrf2 RNAi)) was 8 fold. For the same molecule, the “induction of luciferase activity” value ([1]; 10 μM tBHQ, 100 ng pRS-hNrf2 DNA per well (Nrf2 RNAi)) was 6 fold, the “induction of luciferase activity” value ([1]; 10 μM tBHQ, control cells, no DNA in the transfection mix) was 13 fold and 10 fold and the “inducible level of luciferase activity” value ([1]; 10 μM tBHQ, transfection with 50 ng pHyg-EF-hNrf2 per well) was 19 fold. For the same molecule, the “inducible level of luciferase activity” value ([1]; 10 μM tBHQ, transfection with 100 ng pHyg-EF-hNrf2) was 25 fold, the “induction of luciferase expression compared to DMSO control” value ([1]; 50 μM tBHQ, 24 h) was 14 fold and the “CD, concentration of inducting agent that doubled luciferase reporter activity” value ([1]; 24 h) was 1 µM. The “Ratio (tBHQ/DMSO)” value [7] was 2.7 ± 0.1, the “Relative luciferase activity” value [7, 13] was 1171.6 ± 8.8 and the “Ratio (tBHQ/DMSO)” value ([8]; 50 μM tBHQ) was 52.0 ± 11.9. For the same molecule, the “Relative luciferase activity” value ([8]; 50 μM tBHQ, HepG2 cells treated with DMSO set at 1) was 2276.1 ± 521.1, the “induction of luciferase activity” value ([8]; overnight treatment with 50 μM tBHQ) was “up to 50 fold” and the “induction of AKR1C1 mRNA” value [9] was “approximately 15 fold”. For the same molecule, the “Ratio (tBHQ/DMSO)” value [10] was 3.6 ± 0.5 and the “Relative luciferase activity” value [10, 13] was 140.7 ± 19.6.
With CCC(=O)OC/C=C(C)/C=C/C=C(C)/C=C/C1=C(C)CCCC1(C)C [vitamin A propionate] the “sulforaphane-induced AKR1C protein” value [4] was “reduced the expression of sulforaphane-induced AKR1C”.
In the case of Bleomycin, the IC50 [11] is reported as 660 µM and the IC50 [12] is reported as 55 µM.
